Data as given in patent US6710049B2, “Azole compounds as anti-fungal agents” (Ranbaxy Laboratories Limited, priority 2000, dated 2004).
Values after ≈ are worked out from the molar mass of the structure shown.

Experiments:
C albicans Y01.19 = test: MIC determination (NCCLS broth method); type: cell-based, Candida albicans
Description: (§1) The in-vitro evaluation of the antifungal activity of the compounds can be performed by determining the minimum inhibitory concentration (MIC) as shown in Table 1 which is the concentration of the test compound in Rosewell Park Memorial Institute (RPMI) 1640 liquid medium buffered with 3-(Morpholino)propanesulphonic acid (MOPS) to pH 7, at which there is significant inhibition of the particular fungi. In practice the National Committee for Clinical Laboratory Standard (NCCLS) M27A document for Candida and Cryptococcus and M38P for Aspergillus was used to determine the MIC against yeast and filamentous fungi with suitable modifications for dermatophytes to other filamentous fungi. Three quality control strains were included each time the MIC were determined and readings recorded only when the Quality Control results fell into the acceptable range. After MIC results had been recorded, 100 μl from each of the well showing no growth was spread over Sabouraud Dextrose Agar (SDA) to determine the minimum fungicidal concentration (MFC) as shown in Table 2.

C albicans A-26 = test: MIC determination (NCCLS broth method); type: cell-based, Candida albicans
Description: as §1

C neoformans I = test: MIC determination (NCCLS broth method); type: cell-based, Cryptococcus neoformans
Description: as §1

C neoformans M-106 = test: MIC determination (NCCLS broth method); type: cell-based, Cryptococcus neoformans
Description: as §1

A fumigatus 1008 = test: MFC determination (subculture on Sabouraud Dextrose Agar); type: cell-based, Aspergillus fumigatus
Description: as §1

Fusarium 1827C = test: MIC determination (NCCLS broth method); type: cell-based
Description: as §1

Penicillium 1641 = test: MIC determination (NCCLS broth method); type: cell-based
Description: as §1

Penicillium 3162 = test: MIC determination (NCCLS broth method); type: cell-based
Description: as §1

Fusarium 2960C = test: MIC determination (NCCLS broth method); type: cell-based
Description: as §1

A flavus E2 - 1043 = test: MIC determination (NCCLS broth method); type: cell-based
Description: as §1

A niger P1 - 1046 = test: MIC determination (NCCLS broth method); type: cell-based
Description: as §1

A flavus P3 - 1041 = test: MIC determination (NCCLS broth method); type: cell-based
Description: as §1

Rhizopus 1052 = test: MIC determination (NCCLS broth method); type: cell-based
Description: as §1

C krusei 766.1 = test: MIC determination (NCCLS broth method); type: cell-based
Description: as §1

Penicillium 191 = test: MIC determination (NCCLS broth method); type: cell-based
Description: as §1

H capsulatum = test: MIC determination (NCCLS broth method); type: cell-based
Description: as §1

C parapsilosis 22019 = test: MIC determination (NCCLS broth method); type: cell-based
Description: as §1

Rhizopus (Ceylon) = test: MIC determination (NCCLS broth method); type: cell-based
Description: as §1

A niger E5 - 1047 = test: MIC determination (NCCLS broth method); type: cell-based
Description: as §1

C tropicalis 750 = test: MIC determination (NCCLS broth method); type: cell-based
Description: as §1

Penicillium I - 1049 = test: MIC determination (NCCLS broth method); type: cell-based
Description: as §1

Penicillium 2548 = test: MIC determination (NCCLS broth method); type: cell-based
Description: as §1

A flavus E4 - 1042 = test: MIC determination (NCCLS broth method); type: cell-based
Description: as §1

Fusarium 1050 = test: MIC determination (NCCLS broth method); type: cell-based
Description: as §1

A flavus P2 - 1045 = test: MIC determination (NCCLS broth method); type: cell-based
Description: as §1

Penicillium H - 1048 = test: MIC determination (NCCLS broth method); type: cell-based
Description: as §1

Alternaria 1051 = test: MIC determination (NCCLS broth method); type: cell-based
Description: as §1

A flavus E3 - 1044 = test: MIC determination (NCCLS broth method); type: cell-based
Description: as §1

C krusei 6258 = test: MIC determination (NCCLS broth method); type: cell-based
Description: as §1

C glabrata 90030 = test: MIC determination (NCCLS broth method); type: cell-based
Description: as §1

Mucor (Ceylon) = test: MIC determination (NCCLS broth method); type: cell-based
Description: as §1

P variotii 22319 = test: MIC determination (NCCLS broth method); type: cell-based, Paecillomyces variotii
Description: as §1

Penicilliuim 2306 = test: MIC determination (NCCLS broth method); type: cell-based, Penicillium
Description: as §1

Fusarium spp. isolates = test: Comparative in vitro MIC, isolate panel; type: cell-based
Description: as §1
(§2) A comparative in vitro and in vivo biologically activity data of the compound of our invention, 2-{[1R,2R]-2-(2,4-Difluorophenyl)-2-hydroxy-1-methyl-3-(1H-1,2,4-triazole-1-yl)propyl}-4-[(2′,2′,3′,3′-tetrafluoropropoxyphenyl)-3-(2H,4H)-1,2,4-thiotriazolone (Compound No. 3) with 2-[(1R,2R)-2-(2,4-difluorophenyl)-2-hydroxy-1-methyl-3-(1H-1,2,4-triazol-1-yl)propyl]-4-(2′,2′,3′,3′-tetraflouropropoxyphenyl)-3(2H,4H)-1,2,4-triazolone (TAK 187) and standard antifungal pharmaceuticals is given below: […]

All Filamentous isolates = test: Comparative in vitro MIC, isolate panel; type: cell-based
Description: as §1, §2

Rhizoupus spp. isolates = test: Comparative in vitro MIC, isolate panel; type: cell-based
Description: as §1, §2

All fungal pathogens = test: Comparative in vitro MIC, isolate panel; type: cell-based
Description: as §1, §2

[1] = test system: Penicillium spp. isolates; test: Comparative in vitro MIC, isolate panel; type: cell-based
Description: as §1, §2

All Candida isolates = test: Comparative in vitro MIC, isolate panel; type: cell-based
Description: as §1, §2

[2] = test system: Aspergillus fumigatus isolates; test: Comparative in vitro MIC, isolate panel; type: cell-based
Description: as §1, §2

C[C@@H](n1ncn(-c2ccc(N3CCN(c4ccc(Cl)cc4)CC3)cc2)c1=S)[C@](O)(Cn1cncn1)c1ccc(F)cc1F [Compound No. 1, 2-{[1R,2R]-2-(2,4-Difluorophenyl)-2-hydroxy-1-methyl-3-(1H-1,2,4-triazole-1-yl)propyl}-4-{4-[4-(4-chlorophenyl)-1-piperizinyl]phenyl}-3-(2H,4H)-1,2,4-thiotriazolone]
Minimum Inhibitory Concentration (MIC) (C albicans Y01.19): 0.03 µg/mL
Minimum Inhibitory Concentration (MIC) (C albicans A-26): 0.016 µg/mL
Minimum Inhibitory Concentration (MIC) (C neoformans I): 0.008 µg/mL
Minimum Inhibitory Concentration (MIC) (C neoformans M-106): 0.008 µg/mL
Minimum Fungicidal Concentration (MFC) (A fumigatus 1008): 0.03 µg/mL
Minimum Inhibitory Concentration (MIC) (Fusarium 1827C): 2 µg/mL
Minimum Inhibitory Concentration (MIC) (Penicillium 1641): 0.25 µg/mL
Minimum Inhibitory Concentration (MIC) (Penicillium 3162): 0.03 µg/mL
Minimum Inhibitory Concentration (MIC) (Fusarium 2960C): 2 µg/mL
Minimum Inhibitory Concentration (MIC) (A flavus E2 - 1043): 0.008 µg/mL
Minimum Inhibitory Concentration (MIC) (A niger P1 - 1046): 0.03 µg/mL
Minimum Inhibitory Concentration (MIC) (A flavus P3 - 1041): 0.008 µg/mL
Minimum Inhibitory Concentration (MIC) (Rhizopus 1052): 0.0005 µg/mL
Minimum Inhibitory Concentration (MIC) (C krusei 766.1): 0.125 µg/mL
Minimum Inhibitory Concentration (MIC) (Penicillium 191): 0.06 µg/mL
Minimum Inhibitory Concentration (MIC) (H capsulatum): 0.06 µg/mL
Minimum Inhibitory Concentration (MIC) (C parapsilosis 22019): 0.004 µg/mL
Minimum Inhibitory Concentration (MIC) (Rhizopus (Ceylon)): 0.125 µg/mL
Minimum Inhibitory Concentration (MIC) (A niger E5 - 1047): 0.03 µg/mL
Minimum Inhibitory Concentration (MIC) (C tropicalis 750): 0.008 µg/mL
Minimum Inhibitory Concentration (MIC) (Penicillium I - 1049): 0.03 µg/mL
Minimum Inhibitory Concentration (MIC) (Penicillium 2548): 0.125 µg/mL
Minimum Inhibitory Concentration (MIC) (A flavus E4 - 1042): 0.008 µg/mL
Minimum Inhibitory Concentration (MIC) (Fusarium 1050): 1 µg/mL
Minimum Inhibitory Concentration (MIC) (A flavus P2 - 1045): 0.016 µg/mL
Minimum Inhibitory Concentration (MIC) (Penicillium H - 1048): 0.03 µg/mL
Minimum Inhibitory Concentration (MIC) (Alternaria 1051): 0.03 µg/mL
Minimum Inhibitory Concentration (MIC) (A flavus E3 - 1044): 0.016 µg/mL
Minimum Inhibitory Concentration (MIC) (C krusei 6258): 0.06 µg/mL
Minimum Inhibitory Concentration (MIC) (C glabrata 90030): 0.06 µg/mL
Minimum Inhibitory Concentration (MIC) (Mucor (Ceylon)): 0.004 µg/mL
Minimum Inhibitory Concentration (MIC) (P variotii 22319): 0.004 µg/mL
Minimum Inhibitory Concentration (MIC) (Penicilliuim 2306): 0.016 µg/mL

C[C@@H](n1ncn(-c2ccc(OCC(F)(F)C(F)F)cc2)c1=O)[C@](O)(Cn1cncn1)c1ccc(F)cc1F [TAK 187, 2-[(1R,2R)-2-(2,4-difluorophenyl)-2-hydroxy-1-methyl-3-(1H-1,2,4-triazol-1-yl)propyl]-4-(2′,2′,3′,3′-tetraflouropropoxyphenyl)-3(2H,4H)-1,2,4-triazolone]
Minimum Inhibitory Concentration (MIC) (C albicans Y01.19): 2 µg/mL
Minimum Inhibitory Concentration (MIC) (C neoformans I): 0.03 µg/mL
Minimum Inhibitory Concentration (MIC) (C neoformans M-106): 0.06 µg/mL
Minimum Fungicidal Concentration (MFC) (A fumigatus 1008): 8 µg/mL
Minimum Inhibitory Concentration (MIC) (Fusarium 1827C): 32 µg/mL
Minimum Inhibitory Concentration (MIC) (Penicillium 1641): 16 µg/mL
Minimum Inhibitory Concentration (MIC) (Penicillium 3162): 32 µg/mL
Minimum Inhibitory Concentration (MIC) (Fusarium 2960C): 32 µg/mL
Minimum Inhibitory Concentration (MIC) (A flavus E2 - 1043): 4 µg/mL
Minimum Inhibitory Concentration (MIC) (A niger P1 - 1046): 0.5 µg/mL
Minimum Inhibitory Concentration (MIC) (A flavus P3 - 1041): 8 µg/mL
Minimum Inhibitory Concentration (MIC) (Rhizopus 1052): 8 µg/mL
Minimum Inhibitory Concentration (MIC) (C krusei 766.1): 2 µg/mL
Minimum Inhibitory Concentration (MIC) (Penicillium 191): 16 µg/mL
Minimum Inhibitory Concentration (MIC) (H capsulatum): 0.25 µg/mL
Minimum Inhibitory Concentration (MIC) (C parapsilosis 22019): 0.03 µg/mL
Minimum Inhibitory Concentration (MIC) (Rhizopus (Ceylon)): 2 µg/mL
Minimum Inhibitory Concentration (MIC) (A niger E5 - 1047): 2 µg/mL
Minimum Inhibitory Concentration (MIC) (C tropicalis 750): 0.125 µg/mL
Minimum Inhibitory Concentration (MIC) (Penicillium I - 1049): 16 µg/mL
Minimum Inhibitory Concentration (MIC) (Penicillium 2548): 16 µg/mL
Minimum Inhibitory Concentration (MIC) (A flavus E4 - 1042): 4 µg/mL
Minimum Inhibitory Concentration (MIC) (Fusarium 1050): 64 µg/mL
Minimum Inhibitory Concentration (MIC) (A flavus P2 - 1045): 4 µg/mL
Minimum Inhibitory Concentration (MIC) (Penicillium H - 1048): 16 µg/mL
Minimum Inhibitory Concentration (MIC) (Alternaria 1051): 1 µg/mL
Minimum Inhibitory Concentration (MIC) (A flavus E3 - 1044): 1 µg/mL
Minimum Inhibitory Concentration (MIC) (C krusei 6258): 2 µg/mL
Minimum Inhibitory Concentration (MIC) (C glabrata 90030): 0.5 µg/mL
Minimum Inhibitory Concentration (MIC) (Mucor (Ceylon)): 8 µg/mL
Minimum Inhibitory Concentration (MIC) (P variotii 22319): 0.25 µg/mL
Minimum Inhibitory Concentration (MIC) (Penicilliuim 2306): 8 µg/mL
MIC50 (Fusarium spp. isolates): 32 µg/mL (≈ 59 µM)
MIC90 (Fusarium spp. isolates): 64 µg/mL (≈ 118 µM)
MIC G.M. (Fusarium spp. isolates): 45.255 µg/mL (≈ 83.4 µM)
MIC50 (All Filamentous isolates): 8 µg/mL (≈ 14.7 µM)
MIC90 (All Filamentous isolates): 32 µg/mL (≈ 59 µM)
MIC G.M. (All Filamentous isolates): 7.246 µg/mL (≈ 13.4 µM)
MIC50 (Rhizoupus spp. isolates): 4 µg/mL (≈ 7.37 µM)
MIC90 (Rhizoupus spp. isolates): 4 µg/mL (≈ 7.37 µM)
MIC G.M. (Rhizoupus spp. isolates): 4 µg/mL (≈ 7.37 µM)
MIC50 (All fungal pathogens): 8 µg/mL (≈ 14.7 µM)
MIC90 (All fungal pathogens): 32 µg/mL (≈ 59 µM)
MIC G.M. (All fungal pathogens): 4.16 µg/mL (≈ 7.67 µM)
MIC50 [1]: 16 µg/mL (≈ 29.5 µM)
MIC90 [1]: 64 µg/mL (≈ 118 µM)
MIC G.M. [1]: 18.664 µg/mL (≈ 34.4 µM)
MIC50 (All Candida isolates): 0.5 µg/mL (≈ 0.922 µM)
MIC90 (All Candida isolates): 2 µg/mL (≈ 3.69 µM)
MIC G.M. (All Candida isolates): 0.45 µg/mL (≈ 0.83 µM)
MIC50 [2]: 8 µg/mL (≈ 14.7 µM)
MIC90 [2]: 8 µg/mL (≈ 14.7 µM)
MIC G.M. [2]: 7.4 µg/mL (≈ 13.6 µM)
